IC50 data for 30 compounds are collected here from patent US9115093B2, “Substituted bicyclic dihydropyrimidinones and their use as inhibitors of neutrophil elastase activity” (Boehringer Ingelheim International GmbH, priority 2013, dated 2015).

pIC50: −log10 of the molar value.

The target in the experiment is T1, neutrophil elastase (Homo sapiens, UniProt P08246).
T1 sequence (P08246 30-247 limits assumed): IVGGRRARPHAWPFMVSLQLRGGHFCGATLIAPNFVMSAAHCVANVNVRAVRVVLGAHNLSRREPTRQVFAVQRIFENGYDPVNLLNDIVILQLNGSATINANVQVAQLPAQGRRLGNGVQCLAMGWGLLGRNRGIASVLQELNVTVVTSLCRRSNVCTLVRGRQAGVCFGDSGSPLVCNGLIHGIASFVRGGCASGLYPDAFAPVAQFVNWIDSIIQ
Description: Human Neutrophil Elastase Assay. The experiment is classed as biochemical. On the set-up: purchased Calbiochem 324681. As to conditions: substrate MeOSuc-Ala-Ala-Pro-Val-AMC, pH 7.5, room temperature. The procedure, abridged: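 Readout: AMC fluorescence (ex 380, em 460 nm) after 60 min room-temperature reaction with 250 nM MeOSuc-AAPV-AMC, following 15 min compound–enzyme preincubation. Buffer: Tris/NaCl pH 7.5, 0.01% BSA.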
`CN1CCN(C(=O)N2C(=O)N(c3cccc(C(F)(F)F)c3)C3=C(C(=O)CCC3)C2c2ccc(C#N)cc2)CC1=O` (stereo not drawn) [Example 39.16] gave a pIC50 of 7.33.
In turn, `N#Cc1ccc(C2C3=C(CCCC3=O)N(c3cccc(C(F)(F)F)c3)C(=O)N2C(=O)NCC2CCC(=O)N2)cc1` (stereo not drawn) [Example 39.17] gave a pIC50 greater than 9.00.
The result for `COC1CCN(C(=O)N2C(=O)N(c3cccc(C(F)(F)F)c3)C3=C(C(=O)CCC3)C2c2ccc(C#N)cc2)CC1` (stereo not drawn) [Example 39.18] reads 7.10; that for `CS(=O)(=O)c1ccc(CNC(=O)N2C(=O)N(c3cccc(C(F)(F)F)c3)C3=C(C(=O)CCC3)C2c2ccc(C#N)cc2)nc1` (stereo not drawn) [Example 39.20], greater than 9.00.
On to `COC(=O)N1C(=O)N(c2cccc(C(F)(F)F)c2)C2=C(C(=O)CCC2)C1c1ccc(C#N)cc1` (stereo not drawn) [Example 40, Methyl 4-(4-Cyanophenyl)-2,5-dioxo-1-(3-(trifluoromethyl)phenyl)-1,2,5,6,7,8-hexahydroquinazoline-3(4H)-carboxylate], for which the pIC50 is 8.05.
Consider `COCCOC(=O)N1C(=O)N(c2cccc(C(F)(F)F)c2)C2=C(C(=O)CCC2)C1c1ccc(C#N)cc1` (stereo not drawn) [Example 41, 2-Methoxyethyl 4-(4-Cyanophenyl)-2,5-dioxo-1-(3-(trifluoromethyl)phenyl)-1,2,5,6,7,8-hexahydroquinazoline-3(4H)-carboxylate], for which the negative-log IC50 (pIC50) is 8.04.
The result for `CC(C)(C)COC(=O)N1C(=O)N(c2cccc(C(F)(F)F)c2)C2=C(C(=O)CCC2)C1c1ccc(C#N)cc1` (stereo not drawn) [Example 42, Neopentyl 4-(4-Cyanophenyl)-2,5-dioxo-1-(3-(trifluoromethyl)phenyl)-1,2,5,6,7,8-hexahydroquinazoline-3(4H)-carboxylate] reads 7.05; that for `CS(=O)(=O)N1C(=O)N(c2cccc(C(F)(F)F)c2)C2=C(C(=O)CCC2)C1c1ccc(C#N)cc1` (stereo not drawn) [Example 43, 4-(3-(Methylsulfonyl)-2,5-dioxo-1-(3-(trifluoromethyl)phenyl)-1,2,3,4,5,6,7,8-octahydroquinazolin-4-yl)benzonitrile], 8.40.
In the case of `COC(=O)c1cc(S(=O)(=O)N2C(=O)N(c3cccc(C(F)(F)F)c3)C3=C(C(=O)CCC3)C2c2ccc(C#N)cc2)cs1` (stereo not drawn) [Example 44, Methyl 4-(4-(4-Cyanophenylcyanophenyl)-2,5-dioxo-1-(3-(trifluoromethyl)phenyl)-1,2,5,6,7,8-hexahydroquinazolin-3(4H)-ylsulfonyl)thiophene-2-carboxylate] it was 7.66; in that of `CCS(=O)(=O)N1C(=O)N(c2cccc(C(F)(F)F)c2)C2=C(C(=O)CCC2)C1c1ccc(C#N)cc1` (stereo not drawn) [Example 44.1], 8.29; in that of `CCCS(=O)(=O)N1C(=O)N(c2cccc(C(F)(F)F)c2)C2=C(C(=O)CCC2)C1c1ccc(C#N)cc1` (stereo not drawn) [Example 44.2], 8.52.
In the case of `CC(C)CS(=O)(=O)N1C(=O)N(c2cccc(C(F)(F)F)c2)C2=C(C(=O)CCC2)C1c1ccc(C#N)cc1` (stereo not drawn) [Example 44.3] it was 8.29; in that of `N#Cc1ccc(C2C3=C(CCCC3=O)N(c3cccc(C(F)(F)F)c3)C(=O)N2S(=O)(=O)c2ccco2)cc1` (stereo not drawn) [Example 44.4], 7.81.
`N#Cc1ccc(C2C3=C(CCCC3=O)N(c3cccc(C(F)(F)F)c3)C(=O)N2S(=O)(=O)c2ccccc2)cc1` (stereo not drawn) [Example 44.5] showed a negative-log IC50 (pIC50) of 7.46.
`N#Cc1ccc(C2C3=C(CCCC3=O)N(c3cccc(C(F)(F)F)c3)C(=O)N2S(=O)(=O)c2cccnc2)cc1` (stereo not drawn) [Example 44.6] had a pIC50 of 7.65.
`Cn1ccc(S(=O)(=O)N2C(=O)N(c3cccc(C(F)(F)F)c3)C3=C(C(=O)CCC3)C2c2ccc(C#N)cc2)n1` (stereo not drawn) [Example 44.7] had a negative logarithm of the IC50 (pIC50) of 7.80.
`N#Cc1ccc(C2C3=C(CCCC3=O)N(c3cccc(C(F)(F)F)c3)C(=O)N2S(=O)(=O)Cc2ccccc2)cc1` (stereo not drawn) [Example 44.8] showed a pIC50 of 8.05.
The result for `CS(=O)(=O)CS(=O)(=O)N1C(=O)N(c2cccc(C(F)(F)F)c2)C2=C(C(=O)CCC2)C1c1ccc(C#N)cc1` (stereo not drawn) [Example 44.9] reads 8.47.
In the case of `COC(=O)CCCS(=O)(=O)N1C(=O)N(c2cccc(C(F)(F)F)c2)C2=C(C(=O)CCC2)C1c1ccc(C#N)cc1` (stereo not drawn) [Example 44.10, methyl 4-(4-(4-cyanophenyl)-2,5-dioxo-1-(3-(trifluoromethyl)phenyl)-1,2,5,6,7,8-hexahydroquinazolin-3(4H)-ylsulfonyl)butanoate] it was 8.28; in that of `N#Cc1ccc(C2C3=C(CCCC3=O)N(c3cccc(C(F)(F)F)c3)C(=O)N2S(=O)(=O)c2ccccc2C#N)cc1` (stereo not drawn) [Example 44.11], 7.94.
The result for `N#Cc1ccc(C2C3=C(CCCC3=O)N(c3cccc(C(F)(F)F)c3)C(=O)N2S(=O)(=O)C=Cc2ccccc2)cc1` (stereo not drawn) [Example 44.12] reads 6.97; that for `COC(=O)c1cc(S(=O)(=O)N2C(=O)N(c3cccc(C(F)(F)F)c3)C3=C(C(=O)CCC3)C2c2ccc(C#N)cc2)oc1C` (stereo not drawn) [Example 44.13], 7.56.
`N#Cc1ccc(C2C3=C(CCCC3=O)N(c3cccc(C(F)(F)F)c3)C(=O)N2S(=O)(=O)CCCC(=O)O)cc1` (stereo not drawn) [Example 45, 4-(4-(4-Cyanophenyl)-2,5-dioxo-1-(3-(trifluoromethyl)phenyl)-1,2,5,6,7,8-hexahydroquinazolin-3(4H)-ylsulfonyl)butanoic acid]: the pIC50 is 8.47.
`N#Cc1ccc(C2C3=C(CCCC3=O)N(c3cccc(C(F)(F)F)c3)C(=O)N2S(=O)(=O)c2csc(C(=O)O)c2)cc1` (stereo not drawn) [Example 46, 4-(4-(4-Cyanophenyl)-2,5-dioxo-1-(3-(trifluoromethyl)phenyl)-1,2,5,6,7,8-hexahydroquinazolin-3(4H)-ylsulfonyl)thiophene-2-carboxylic acid]: the pIC50 is 7.67.
The compound `CNC(=O)N1C(=O)N(c2cccc(C(F)(F)F)c2)C2=C(C(=O)CCC2)C1c1ccc(C#N)cc1S(C)(=O)=O` (stereo not drawn) [Example 47, 4-(4-Cyano-2-(methylsulfonyl)phenyl)-N-methyl-2,5-dioxo-1-(3-(trifluoromethyl)-phenyl)-1,2,5,6,7,8-hexahydroquinazoline-3(4H)-carboxamide] had a negative logarithm of the IC50 (pIC50) greater than 9.00.
In the case of `CS(=O)(=O)c1cc(C#N)ccc1C1C2=C(CCCC2=O)N(c2cccc(C(F)(F)F)c2)C(=O)N1C(=O)NCCO` (stereo not drawn) [Example 47.2], the negative logarithm of the IC50 (pIC50) was greater than 9.00.
The result for `CS(=O)(=O)c1cc(C#N)ccc1C1C2=C(CCCC2=O)N(c2cccc(C(F)(F)F)c2)C(=O)N1C(=O)NCCCO` (stereo not drawn) [Example 47.3] reads greater than 9.00.
The result for `CS(=O)(=O)CCNC(=O)N1C(=O)N(c2cccc(C(F)(F)F)c2)C2=C(C(=O)CCC2)C1c1ccc(C#N)cc1S(C)(=O)=O` (stereo not drawn) [Example 47.4] reads greater than 9.00.
The compound `CN1C(=O)N(c2cccc(C(F)F)c2)C2=C(C(=O)CCC2)C1c1ccc(C#N)cc1S(C)(=O)=O` (stereo not drawn) [Example 49, 4-(1-(3-(Difluoromethyl)phenyl)-3-methyl-2,5-dioxo-1,2,3,4,5,6,7,8-octahydroquinazolin-4-yl)-3-(methylsulfonyl)benzonitrile] had a pIC50 of 8.89.
Turning to `CNC(=O)N1C(=O)N(c2cccc(C(F)F)c2)C2=C(C(=O)CCC2)C1c1ccc(C#N)cc1S(C)(=O)=O` (stereo not drawn) [Example 50, 4-(4-Cyano-2-(methylsulfonyl)phenyl)-1-(3-(difluoromethyl)phenyl)-N-methyl-2,5-dioxo-1,2,5,6,7,8-hexahydroquinazoline-3(4H)-carboxamide], the pIC50 was greater than 9.00.
